Data from US12441732B2, “Potassium salt crystal form B of phosphodiesterase type 5 inhibitor, and preparation method and use therefor” (Guangzhou Huazhen Pharmaceutical Co., Ltd, priority 2019, dated 2025).
≈ marks a conversion by molar mass, not a printed value. Where two headings read alike, the source gives them in different places.

What was measured:
PAH rats [1] = experiment: Monocrotaline-induced pulmonary arterial hypertension (PAH) rats: RVSP, RVMI, pulmonary arterioles; format: in vivo, SD rats; conditions: for RVMI, RV/(LV+S) / RVSP: 3 weeks after MCT
From the text: SD rats were randomly divided into 8 groups, 15 rats/group: a normal control group (Vehicle); a PAH model group (MCT); a PAH+potassium salt crystal form B of WYQ mini-dose group (hereafter referring to as a mini-dose group); a PAH+potassium salt crystal form B of WYQ low-dose group (hereafter referring to as a low-dose group); a PAH+potassium salt crystal form B of WYQ medium-dose group (hereafter referring to as a medium-dose group); a PAH+potassium salt crystal form B of WYQ high-dose group (hereafter referring to as a high-dose group); a PAH+Sildenafil control group (hereafter referring to as a Sildenafil group); a PAH+Tadalafil control group (hereafter referring to as a Tadalafil group).
MCT was fully dissolved with 1M dilute HCl, diluted with double-distilled water, and adjusted to pH=7.2 with 3M NaOH, thereby preparing a MCT solution with a final concentration of 20 mg/ml.
The normal control group was injected subperitoneally with normal saline (50 mg/kg), and the rest of the groups were injected subperitoneally with MCT (50 mg/kg) at one time.
Mini-dose group: the potassium salt crystal form B of WYQ was prepared into a 0.4 mg/ml medicinal solution (ready to use) with normal saline, and administered by gavage at the dose of 2 mg·kg^−1d^−1;
Low-dose group: the potassium salt crystal form B of WYQ was prepared into a 1 mg/ml medicinal solution (ready to use) with normal saline, and administered by gavage at the dose of 5 mg·kg^−1d^−1;
Medium-dose group: the potassium salt crystal form B of WYQ was prepared into a 2 mg/ml medicinal solution (ready to use) with normal saline, and administered by gavage at the dose of 10 mg·kg^−1d^−1;
High-dose group: the potassium salt crystal form B of WYQ was prepared into a 4 mg/ml medicinal solution (ready to use) with normal saline, and administered by gavage at the dose of 20 mg·kg^−1d^−1;
Sildenafil group: Sildenafil was prepared into a 5 mg/ml medicinal solution (ready to use) with 0.5% sodium carboxymethyl cellulose, and administered by gavage at the dose of 25 mg·kg^−1d^−1;
Tadalafil group: Tadalafil was prepared into a 2 mg/ml medicinal solution (ready to use) with 0.5% sodium carboxymethyl cellulose, and administered by gavage at the dose of 10 mg·kg^−1d^−1.
The day of injection was the starting date of the experiment, and the administration was started after 7 days of modeling, once a day for 14 consecutive days.
After 3 weeks from the starting date of the experiment, RVSP data were collected on RM-6240E polygraph for each group of rats.
After 3 weeks from the starting date of the experiment, the animals were anesthetized, hemodynamically tested (RM-6240E polygraph), and sacrificed after manometry. The cardiopulmonary tissues were immediately dissected, and the right and left atria and great vessels were cut off along the atrioventricular junction with ophthalmic scissors to separate the right ventricle (RV) and left ventricular wall plus septum (LV+S), which was absorbed water with filter paper and weighed respectively, and RV/(LV+S), i.e., RVMI was calculated.
After 3 weeks from the starting date of the experiment, rats were heparinized with heparin (50 IU/100 g, intraperitoneal injection) for 5 min. The animals were anesthetized by injection of 20% urethane solution (0.5 ml/100 g), and the blood pressure indexes were detected and recorded.
The heart was dissected, the right ventricular wall was separated, and the left ventricle and the septum were separated, which were absorbed water with filter paper and weighed respectively to calculate the right ventricular hypertrophy index.
The lungs were dissected, wherein the right lung was ligated, and the left lung lobe was perfused with a fixative (4% paraformaldehyde) and then fixed in the fixative, dehydrated by ethanol gradient, allowed to become transparent by using xylene, immersed in wax, embedded in paraffin, sectioned (4 μm), stained with hematoxylin-eosin (HE), sealed with neutral gum and then observed under a microscope. […]

PDE5 = PDE5 (Homo sapiens, UniProt O76074); conditions: background statement; cited from earlier work
[2] = background statement; cited from earlier work
PAH rats [3] = experiment: Penile erectile function observation in PAH rats; format: in vivo, SD rats
Procedure: After gavage treatment, penile erection in the animals was observed, wherein the time of penile erection phenomenon after gavage was recorded in each group.

IPF rats = experiment: Bleomycin-induced idiopathic pulmonary fibrosis (IPF) rats; format: in vivo, SD rats; conditions: 23 days
Procedure: The animals were purchased, and modeling was started after 3-7 days of acclimatization. The animals were weighed and anesthetized by inhalation with isoflurane. After the animals were confirmed to be anesthetized, the neck was disinfected, and the skin of the neck was cut. The main trachea was exposed by bluntly dissecting the muscle, a small incision was made between the tracheal rings, into which a PE-20 tube was inserted until the left main bronchus, and bleomycin was injected directly (dose: 3 mg/kg, volume: 1.0 ml/kg). The trachea and skin were sutured. After the surgery, the animals were kept warm at 37° C. under an electric blanket until the animals were fully awake and confirmed to be able to feed and drink freely before returning the animals to their normal feeding cages.
50 mg/kg Nintedanib group (BIBF-50 mg/kg): BIBF was prepared into a solution of 10 mg/ml with 0.5% sodium carboxymethyl cellulose and administered by gavage at a dose of 50 mg/kg^−1·d^−1;
Each group of rats was administered by gavage on the day of modeling, once a day for 23 days in total.
After 23 days of continuous administration, all animals in each group were euthanized by intraperitoneal injection of pentobarbital sodium anesthetic (100 mg/kg) in accordance with the KCl standard operating procedure for animal euthanasia. Whole-body perfusion was performed by low-temperature PBS, and then fixation was performed by whole-body formalin perfusion. The left lung was taken and perfused with an equal amount of formalin fluid for weighing and subsequent lung pathology-related tests.
Left lung gross pathological examination: after perfusion with an equal amount of formalin, the wet weight of the left lung after the perfusion was weighed and recorded with a microbalance; the volume of the left lung after perfusion was measured and recorded using a toe volume measuring instrument.
The whole lung of the left lung was dehydrated according to the KCl pathology standard SOPs, and paraffin blocks were prepared. The whole lung of the left lung was paraffin-sectioned at a thickness of 3-4 μm. HE staining and Masson Trichrome staining were performed according to the KCl pathology standard staining SOPs, and the slice panoramic scanning was carried out by a Hamamatsu NanoZoomer Digital Pathology (S210) slice scanner. The lung lesion area was calculated by Masson Trichrome staining of the sections, and the left lung fibrosis area (%) was the percentage of fibrosis area in the left lung area; 10 randomly selected fields of view of 1 mm^2 in the lesion area were semi-quantitatively scored by the pathologist under double-blind conditions according to the Ashcroft scoring system (as shown in Table 8 and FIG. 40).

[4] = Dynamic solubility test in water, SGF, FaSSIF, FeSSIF at 37° C.; format: physicochemical; conditions: for solubility at 1 h / solubility at 4 h / solubility at 24 h: thermodynamic from solid, read-out: solubility (S)
[5] = Solid-state stability test (one week, open); format: physicochemical; conditions: for HPLC purity: Purity after placement / Purity after placement/Starting purity / Crystal form change: open; for Crystal form change: XRPD
Procedure: The solid-state stability of the potassium salt crystal form B prepared in Embodiment 1 was tested, in which 5.22 mg of potassium salt crystal form B samples were weighed and left open at 25° C./60% RH, and 5.19 mg of potassium salt crystal form B samples were weighed and left open at 40° C./75% RH. After one week, all samples were subjected to XRPD characterization (see XRPD parameter settings in Table 1) and HPLC purity test (Agilent 1100) to detect changes in crystal form and purity, wherein HPLC purity test parameters were shown in Table 6. Meanwhile, 4.59 mg of a compound WYQ sample was weighed and left open at 25° C./60% RH, and 5.11 mg of the compound WYQ sample was weighed and left open at 40° C./75% RH. The solid-state stability of these samples were performed under the same conditions for comparative reference.

[6] = Sildenafil group 25 mg·kg^−1d^−1
[7] = Sildenafil group 25 mg·kg^−1d^−1 gavage once a day for 14 days
[8] = Tadalafil group 10 mg·kg^−1d^−1 gavage once a day for 14 days

SMILES: CCCc1nn(C)c2c(=O)[nH]c(-c3cc(S(=O)(=O)N4CCN(C)CC4)ccc3OCC)nc12 [Sildenafil, reference compound]
- WT % of pulmonary arterioles vs PAH model group (PAH rats [1]; [6]): not statistically significant
- tunica media thickness of pulmonary arterioles vs PAH model group (PAH rats [1]; [6]): decrease
- RVMI, RV/(LV+S) (PAH rats [1]; [7]): 48.4±1.0%
- RVSP (PAH rats [1]; [7]): 60.4±5.0 mmHg
- selective effect on PDE5 relative to PDE6 (PDE5): 10 times
- bioavailability [2]: about 41%
- rats showing penile erection (PAH rats [3]; Sildenafil group 25 mg·kg^−1d^−1, over 30 minutes after gavage): 80%

SMILES: COC(=O)c1ccc2c(c1)NC(=O)/C2=C(\Nc1ccc(N(C)C(=O)CN2CCN(C)CC2)cc1)c1ccccc1 [BIBF, Nintedanib, reference compound]
- Left lung volume (IPF rats; 50 mg/kg gavage once a day): 1736.9 ± 136.10 mm^3
- Left lung weight (IPF rats; 50 mg/kg gavage once a day): 1.58 ± 0.12 g
- alveolar tissue structure in left lung pulmonary fibrosis lesions (HE staining) (IPF rats; 50 mg/kg): some of the alveolar structures in the fibrotic lesions were still damaged
- alveolar tissue structure in left lung pulmonary fibrosis lesions (Masson Trichrom staining) (IPF rats; 50 mg/kg): some of the alveolar structures in the fibrotic lesions disappeared
- left lung pulmonary fibrosis lesions and lesion range vs the model group (IPF rats; different doses, H&E and Masson Trichrom staining): no significant difference
- Fibrosis area (IPF rats; left lung, 50 mg/kg): 56.91 ± 4.19%
- Percentage of score (%) (≤3) (IPF rats; left lung, 50 mg/kg): 78.75 ± 4.79 %

SMILES: CCCCOC(=O)NS(=O)(=O)c1cccc(-c2nc3c(CCC)nn(C)c3c(=O)[nH]2)c1 [compound WYQ, 5-(2-H-5 (N-butoxycarbonylaminosulfonyl)phenyl)-1-methyl-3-propyl-1,6-dihydro-7H-pyrazolo [4,3-d]pyrimidin-7-one]
- crystal form change after XRPD assay (FC) ([4]; FaSSIF, 1 h): yes
- pH ([4]; FaSSIF, 1 h): 6.5
- crystal form change after XRPD assay (FC) ([4]; FaSSIF, 4 h): yes
- pH ([4]; FaSSIF, 4 h): 6.5
- crystal form change after XRPD assay (FC) ([4]; FaSSIF, 24 h): yes
- pH ([4]; FaSSIF, 24 h): 6.6
- crystal form change after XRPD assay (FC) ([4]; FeSSIF, 1 h): yes
- pH ([4]; FeSSIF, 1 h): 5.0
- crystal form change after XRPD assay (FC) ([4]; FeSSIF, 4 h): yes
- pH ([4]; FeSSIF, 4 h): 5.0
- crystal form change after XRPD assay (FC) ([4]; FeSSIF, 24 h): yes
- pH ([4]; FeSSIF, 24 h): 5.0
- crystal form change after XRPD assay (FC) ([4]; SGF, 1 h): yes
- pH ([4]; SGF, 1 h): 2.4
- crystal form change after XRPD assay (FC) ([4]; SGF, 4 h): yes
- pH ([4]; SGF, 4 h): 2.5
- crystal form change after XRPD assay (FC) ([4]; SGF, 24 h): yes
- pH ([4]; SGF, 24 h): 2.4
- solubility at 1 h ([4]; fasted-state simulated intestinal fluid (FaSSIF), FaSSIF, 1 h): 1900 µg/mL (≈ 4250 µM)
- solubility at 4 h ([4]; fasted-state simulated intestinal fluid (FaSSIF), FaSSIF, 4 h): 1900 µg/mL (≈ 4250 µM)
- solubility at 24 h ([4]; fasted-state simulated intestinal fluid (FaSSIF), FaSSIF, 24 h): 2000 µg/mL (≈ 4470 µM)
- solubility at 1 h ([4]; fed-state simulated intestinal fluid (FeSSIF), FeSSIF, 1 h): 160 µg/mL (≈ 358 µM)
- solubility at 4 h ([4]; fed-state simulated intestinal fluid (FeSSIF), FeSSIF, 4 h): 160 µg/mL (≈ 358 µM)
- solubility at 24 h ([4]; fed-state simulated intestinal fluid (FeSSIF), FeSSIF, 24 h): 160 µg/mL (≈ 358 µM)
- solubility at 1 h ([4]; simulated gastric fluid (SGF), simulated gastric fluid, SGF, 1 h): 5.6 µg/mL (≈ 12.5 µM)
- solubility at 4 h ([4]; simulated gastric fluid (SGF), simulated gastric fluid, SGF, 4 h): 6 µg/mL (≈ 13.4 µM)
- solubility at 24 h ([4]; simulated gastric fluid (SGF), simulated gastric fluid, SGF, 24 h): 6.9 µg/mL (≈ 15.4 µM)
- solubility at 1 h ([4]; water, 1 h): 2200 µg/mL (≈ 4920 µM)
- solubility at 4 h ([4]; water, 4 h): 1800 µg/mL (≈ 4020 µM)
- solubility at 24 h ([4]; water, 24 h): 2200 µg/mL (≈ 4920 µM)
- crystal form change after XRPD assay (FC) ([4]; water, 1 h): yes
- pH ([4]; water, 1 h): 7.7
- crystal form change after XRPD assay (FC) ([4]; water, 4 h): yes
- pH ([4]; water, 4 h): 7.9
- crystal form change after XRPD assay (FC) ([4]; water, 24 h): yes
- pH ([4]; water, 24 h): 7.6
- decrease in purity after one week of placement ([5]; 25° C./60% RH): No significant decrease
- HPLC purity: Purity after placement ([5]; 25° C./60% RH, one week): 97.17 area %
- Purity after placement/Starting purity ([5]; 25° C./60% RH, one week): 99.8%
- Crystal form change ([5]; 25° C./60% RH, one week): unchanged
- decrease in HPLC purity (area %) ([5]; 40° C./75% RH, one week): about 1%
- HPLC purity: Purity after placement ([5]; 40° C./75% RH, one week): 96.30 area %
- Purity after placement/Starting purity ([5]; 40° C./75% RH, one week): 98.9%
- Crystal form change ([5]; 40° C./75% RH, one week): changed

SMILES: CN1CC(=O)N2[C@H](c3ccc4c(c3)OCO4)c3[nH]c4ccccc4c3C[C@@H]2C1=O [Tadalafil, reference compound]
- RVMI, RV/(LV+S) (PAH rats [1]; [8]): 41.8±1.9%
- RVSP (PAH rats [1]; [8]): 52.5±2.4 mmHg
- biological half-life [2]: approximately 17.5 hours
- rats showing penile erection (PAH rats [3]; Tadalafil group 10 mg·kg^−1d^−1, over 30 minutes after gavage): 80%
